Laboratory results: patent US11549123B2, “Plant EPSP synthases and methods of use” (PIONEER HI-BRED INTERNATIONAL, INC., priority 2015, dated 2023)
Changes are numbered by the printed parent chain.

What was measured:
[1] = molecular target: T1, Zea mays EPSPS variant Zm-H6 (868-H6) with A36G (H6-A36G) (Zea mays, UniProt O24566, A1R/A35G/A3W/A415G/A71Q/D401G/E301S/E390G/G101A/I207L/K83R/L97C/T278A/T360S/T440Q/V437R); test: Rapid two-rate method for (kcat/KM)*KI, H6-A36G; assay type: biochemical; settings: [E] 0.07 uM, [Gly] 1000 uM
T1 sequence (O24566 with tags, fused parts or gaps A1R/A3W/A35G/A71Q/K83R/L97C/G101A/I207L/T278A/E301S/T360S/E390G/D401G/A415G/V437R/T440Q): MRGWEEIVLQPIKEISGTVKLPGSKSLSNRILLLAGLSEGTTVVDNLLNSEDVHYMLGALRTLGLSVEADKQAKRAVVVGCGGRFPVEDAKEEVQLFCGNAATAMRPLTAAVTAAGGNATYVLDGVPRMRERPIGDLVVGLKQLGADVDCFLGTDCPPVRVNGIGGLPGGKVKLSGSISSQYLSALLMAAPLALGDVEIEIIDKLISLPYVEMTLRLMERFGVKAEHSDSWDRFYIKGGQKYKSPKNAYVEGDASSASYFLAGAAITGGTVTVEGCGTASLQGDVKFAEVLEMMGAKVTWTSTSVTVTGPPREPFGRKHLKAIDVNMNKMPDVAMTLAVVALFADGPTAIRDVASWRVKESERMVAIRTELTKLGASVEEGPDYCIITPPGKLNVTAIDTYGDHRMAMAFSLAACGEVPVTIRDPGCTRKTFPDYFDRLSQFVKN
From the text: (§1) There are several practical considerations for accurately estimating (kcat/KM)*KI with the rapid method. […] 2) The inhibitor concentration must be adjusted so as to obtain a degree of inhibition that minimally amplifies the error in the term v0-vi in Equation 3. If inhibition is too little, v0-vi will be small, and the error in the multiplier vi×v0/(v0-vi) will be large. […] 3) Substrate concentration should be set at the approximate KM of the parental variant(s), subject to the sensitivity of the assay. High substrate concentration obscures sensitivity to the inhibitor and reduces stringency for capturing improvements in KM. Depending on the necessity for speed, there exists opportunity for customizing enzyme and inhibitor concentrations. […] The rapid method was repeated for those and obtained data that correlated better with data obtained by substrate saturation analysis. For screening purposes however, that correlation step is not necessary. Conditions can be set so that variants with a pre-determined minimal fitness level are accurately quantified.
(§2) In Table 15, parameters above the heavy line for the rapid method were obtained under standard conditions. For variants shown below the heavy line, the rapid analysis was repeated with enzyme or glyphosate concentrations adjusted as needed to generate sufficient signal within the limits for linear initial rates.

[2] = molecular target: T2, Zea mays EPSPS variant Zm-T103A (Zea mays, UniProt O24566, T102A); test: Rapid two-rate method for (kcat/KM)*KI, Zm-T103A; assay type: biochemical; settings: [E] 0.07 uM, [Gly] 1000 uM
T2 construct: native maize plus T103A; E. coli BL21(DE3), Ni-NTA purified
T2 sequence (O24566 with tags, fused parts or gaps T102A): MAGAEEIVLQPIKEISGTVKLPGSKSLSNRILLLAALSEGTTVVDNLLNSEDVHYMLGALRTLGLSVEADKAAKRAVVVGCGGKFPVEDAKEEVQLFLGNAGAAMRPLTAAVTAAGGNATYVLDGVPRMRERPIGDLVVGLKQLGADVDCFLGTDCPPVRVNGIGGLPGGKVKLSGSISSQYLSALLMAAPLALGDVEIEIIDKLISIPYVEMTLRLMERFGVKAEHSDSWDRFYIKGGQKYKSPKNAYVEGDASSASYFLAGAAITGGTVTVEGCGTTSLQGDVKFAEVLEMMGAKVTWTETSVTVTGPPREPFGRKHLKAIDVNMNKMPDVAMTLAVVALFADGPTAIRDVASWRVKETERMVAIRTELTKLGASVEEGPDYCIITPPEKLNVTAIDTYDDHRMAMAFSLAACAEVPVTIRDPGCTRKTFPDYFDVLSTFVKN
From the text: as §1, §2

[3] = molecular target: T2, Zea mays EPSPS variant Zm-T103A; test: Substrate saturation kinetic analysis with glyphosate, Zm-T103A; assay type: biochemical
[4] = molecular target: T3, Zea mays EPSPS variant Zm-H6 (868-H6) with K246G (H6-K246G) (Zea mays, UniProt O24566, A1R/A3W/A415G/A71Q/D401G/E301S/E390G/G101A/I207L/K245G/K83R/L97C/T278A/T360S/T440Q/V437R); test: Substrate saturation kinetic analysis with glyphosate, H6-K246G; assay type: biochemical
T3 construct: 868-H6 plus K246G; E. coli BL21(DE3), Ni-NTA purified
T3 sequence (O24566 with tags, fused parts or gaps A1R/A3W/A71Q/K83R/L97C/G101A/I207L/K245G/T278A/E301S/T360S/E390G/D401G/A415G/V437R/T440Q): T1 sequence (O24566 with tags, fused parts or gaps A1R/A3W/A35G/A71Q/K83R/L97C/G101A/I207L/T278A/E301S/T360S/E390G/D401G/A415G/V437R/T440Q) with G36A, K246G

[5] = tested on: Glycine max (93Y21) hairy root; test: Hairy root growth from transformed soybean cotyledons with or without 25 uM glyphosate; assay type: cell-based; settings: medium containing 25 uM glyphosate
[6] = tested on: Glycine max (93Y21) cotyledon hairy roots; test: Hairy root growth of transformed soybean cotyledons on 25 uM glyphosate; assay type: cell-based

SMILES: O=C(O)CNCP(=O)(O)O [glyphosate, N-phosphonomethylglycine]
- (kcat/KM)*KI [1]: 4500
- (kcat/KM)*KI [2]: 543
- Ki [3]: 208 µM
- (kcat/KM)*KI ([3]; substrate saturation, Zm-T103A): 321
- Ki [4]: 284 µM
- (kcat/KM)*KI ([4]; substrate saturation, H6-K246G): 2490
- root growth of untransformed cotyledons [5]: no growth
- hairy root formation ([6]; EPSPS driven by weaker promoters (UBQ3 and native), with glyphosate): Hairy roots were not formed
- hairy root formation ([6]; UBQ10 promoter and H6, C1 and C2 variants, 25 uM glyphosate): generated hairy roots
- root growth ([6]; native EPSPS (UBQ10 promoter), 25 uM glyphosate): no root growth
